Assay results from US9034352B2, “Microbicide combinations containing silver” (Rohm and Haas Company, priority 2006, dated 2015).
Like-named read-outs stand apart in the source and are kept apart here.

What was measured:
Test in all cases: Synergy test, high resolution MIC microtiter plate assay
Format in all cases: cell-based
[1] = system: Samonella choleraesuis (S. choleraesuis—ATCC #10708); conditions: Salmonella enterica, read-out: MIC of component acting alone (end point)
From the text: (§1) One measure of synergism is the industrially accepted method described by Kull, F. C.; Eisman, P. C.; Sylwestrowicz, H. D. and Mayer, R. L., in Applied Microbiology 9:538-541 (1961), using the ratio determined by the formula: Ca/CA+Cb/CB=Synergy Index (“SI”) wherein:
(§2) CA=concentration of compound A (first component) in ppm, acting alone, which produced an end point (MIC of Compound A).
(§3) Ca=concentration of compound A in ppm, in the mixture, which produced an end point.
(§4) CB=concentration of compound B (second component) in ppm, acting alone, which produced an end point (MIC of Compound B).
(§5) Cb=concentration of compound B in ppm, in the mixture, which produced an end point.
(§6) When the sum of Ca/CA and Cb/CB is greater than one, antagonism is indicated. […] The lower the SI, the greater the synergy shown by that particular mixture. The minimum inhibitory concentration (MIC) of an antimicrobial compound is the lowest concentration tested under a specific set of conditions that prevents the growth of added microorganisms.
(§7) Synergy tests were conducted using standard microtiter plate assays with media designed for optimal growth of the test microorganism. Soybean Casein Digest Broth (Tryptic Soy Broth, TSB medium) or minimal salt medium supplemented with 0.2% glucose and 0.1% yeast extract (M9GY medium) was used for testing bacteria; Potato Dextrose Broth (PDB medium) was used for testing yeast and mold. In this method, a wide range of combinations of microbicides was tested by conducting high resolution MIC assays in the presence of various concentrations of the biocides. High resolution MICs were determined by adding varying amounts of microbicide to one column of a microtitre plate and doing subsequent ten-fold dilutions using an automated liquid handling system.
The synergy of the combinations of the present invention was determined against four bacteria, gram positive Staphylococcus aureus (S. aureus—ATCC #6538) and gram negative Pseudomonas aeruginosa (P. aeruginosa—ATCC #15442), Samonella choleraesuis (S. choleraesuis—ATCC #10708) and Esherichia coli (E. coli—ATCC #8739), a yeast, Candida albicans (C. albicans—ATCC 10231), and a mold, Aspergillus niger (A. niger—ATCC 16404). The bacteria were used at a concentration of about 1-6×10^6 bacteria per mL and the yeast and mold at 1-5×10^5 fungi per mL. These microorganisms are representative of natural contaminants in many consumer and industrial applications. […] (yeast and mold) or 30° C. (bacteria).
(§8) The end point values in the following examples for the silver-polymer complex are reported on an active silver ion basis.

[2] = system: Candida albicans (C. albicans—ATCC 10231); conditions: Candida albicans, ATCC10231, C. albicans, Ag-polymer on active silver ion basis, read-out: MIC of component acting alone (end point)
From the text: as §1, §2, §3, §4, §5, §6, §7
(§9) […]. The bacteria were used at a concentration of about 1-6×10^6 bacteria per mL and the yeast and mold at 1-5×10^5 fungi per mL. These microorganisms are representative of natural contaminants in many consumer and industrial applications. […] (yeast and mold) or 30° C. (bacteria).
as §8

[3] = system: Esherichia coli (E. coli—ATCC #8739); conditions: Escherichia coli, Ag-polymer on active silver ion basis, read-out: MIC of component acting alone (end point)
From the text: as §1, §2, §3, §4, §5, §6, §7, §9, §8

[4] = system: Pseudomonas aeruginosa (P. aeruginosa—ATCC #15442); conditions: Pseudomonas aeruginosa, ATCC15442, P. aeruginosa, Ag-polymer on active silver ion basis, read-out: MIC of component acting alone (end point)
From the text: as §1, §2, §3, §4, §5, §6, §7
(§10) The bacteria were used at a concentration of about 1-6×10^6 bacteria per mL and the yeast and mold at 1-5×10^5 fungi per mL. These microorganisms are representative of natural contaminants in many consumer and industrial applications. […] (yeast and mold) or 30° C. (bacteria).

[5] = system: Aspergillus niger (A. niger—ATCC 16404); conditions: Aspergillus niger, A. niger, Ag-polymer on active silver ion basis, read-out: MIC of component acting alone (end point)
From the text: as §1, §2, §3, §4, §5, §6, §7, §10

[6] = system: Staphylococcus aureus (S. aureus—ATCC #6538); conditions: Staphylococcus aureus, ATCC6538, S. aureus, Ag-polymer on active silver ion basis, read-out: MIC of component acting alone (end point)
From the text: as §1, §2, §3, §4, §5, §6, §7, §10

[7] = ATCC16404, 168 h, contact time 7 days

| Compound | MIC [1] [µg/mL] | MIC ([2]; contact time 48 hour) [µg/mL] | MIC ([3]; ATCC8739, contact time 24 hour) [µg/mL] | MIC ([3]; ATCC8739, contact time 48 hour) [µg/mL] | MIC ([4]; contact time 24 hour) [µg/mL] | MIC ([4]; contact time 48 hour) [µg/mL] | MIC [5, 7] [µg/mL] | MIC ([6]; contact time 24 hour) [µg/mL] | MIC ([6]; contact time 48 hour) [µg/mL] | MIC ([1]; S. choleraesuis, contact time 24 hour, Ag-polymer on active silver ion basis) [µg/mL] | MIC ([1]; S. choleraesuis, contact time 48 hour, Ag-polymer on active silver ion basis) [µg/mL] | MIC ([2]; contact time 24 hour) [µg/mL] | MIC ([5]; ATCC16404, 72 h, contact time 3 days) [µg/mL] |
| --- | --- | --- | --- | --- | --- | --- | --- | --- | --- | --- | --- | --- | --- |
| CCCCCCCCn1sc(Cl)c(Cl)c1=O [DCOIT, 4,5-dichloro-2-n-octyl-4-isothiazolin-3-one, reference compound] | 1.5 | 0.15 | 0.29 | 0.43 | 1.5 | 2.9 | 2 | 0.29 | 0.29 |  |  |  |  |
| CCCCCCCCn1sccc1=O [OIT, 2-n-octyl-4-isothiazolin-3-one, reference compound] |  | 0.99 | 294 | 294 | 444 |  | 5.76 | 72.8 | 72.8 | 361 | 361 | 0.81 | 3.9 |
